Assay results reported in US20090054453A1, “Novel Tetralins as 5-HT6 Modulators” (priority 2006, published 2009).

Molecular target: T1, rat striatal 5-HT6 receptors (Rattus norvegicus, UniProt P31388)
T1 construct: Striatal tissue from adult rats (Sprague-Dawley, 320-370 g, B & K Sweden) were dissected out, weighed and homogenized; from tissue; host or cells: rat striatum (Sprague-Dawley) membranes
Assay: [125I]SB258585 binding to rat striatal 5-HT6 receptors
Conditions: competition with [125I]SB258585, rat striatal membranes
Method: Method for [125I]SB258585 binding to rat striatal 5-HT6 receptors
[^125I]SB258585 (1) with specific radioactivity 2000 Ci/mmol was purchased from Amersham Biosciences Europe GmbH, Freiburg, Germany. Other chemicals were purchased from commercial sources and were of analytical grade.
Striatal tissue from adult rats (Sprague-Dawley, 320-370 g, B & K Sweden) were dissected out, weighed and homogenized in buffer containing 50 mM Tris-HCl, 4 mM MgCl2, 1 mM EDTA, 10 μM pargyline and protease inhibitor (Complete, Roche Diagnostics) pH 7.4 using an Ultra-Turrax T8 (IKA Labortechnik, Germany). The tissue homogenate was centrifuged at 48 000×g for 10 min and the pellet was resuspended and recentrifuged as above. […]
Saturation binding studies were carried out in duplicate with 1-3 mg w.w. per tube in 0.5 ml buffer (50 mM Tris, 4 mM MgCl2, 100 mM NaCl, 1 mM EDTA, 5 mM ascorbate and 10 μM pargyline at pH 7.4), 0.2 nM [^125I]SB258585 and unlabelled SB258585 to give a final concentration range of 0.23-20 nM (12 conc.). Non-specific binding was determined in the presence of 10 μM methiothepin. […] The radioactivity was determined in a Packard Tri-Carb 2900TR liquid scintillation counter. Data were analyzed by non-linear regression analyses using PRISM 4.00 (GraphPad Software Inc., San Diego, Calif.). […]

T1 sequence (P31388 whole entry): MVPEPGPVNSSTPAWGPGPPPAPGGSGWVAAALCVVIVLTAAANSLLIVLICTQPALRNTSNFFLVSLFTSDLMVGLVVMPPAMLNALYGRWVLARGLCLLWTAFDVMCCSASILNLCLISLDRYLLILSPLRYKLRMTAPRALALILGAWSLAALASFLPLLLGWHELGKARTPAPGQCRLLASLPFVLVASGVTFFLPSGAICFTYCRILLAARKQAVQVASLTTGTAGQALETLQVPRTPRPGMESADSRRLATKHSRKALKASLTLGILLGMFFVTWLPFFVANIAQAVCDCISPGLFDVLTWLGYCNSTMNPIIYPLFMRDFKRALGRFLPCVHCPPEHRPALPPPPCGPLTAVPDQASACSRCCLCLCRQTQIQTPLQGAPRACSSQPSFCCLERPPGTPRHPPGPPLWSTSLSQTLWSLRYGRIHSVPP

Ki: 0.8 nM
Compound: CN1CCN(c2cccc3c2C[C@H](NS(=O)(=O)c2ccc4ccccc4c2)CC3)CC1 [Example 12, N-[(2R)-8-(4-Methylpiperazin-1-yl)-1,2,3,4-tetrahydronaphthalen-2-yl]naphthalene-2-sulfonamide]
